Laboratory results: patent US20240409536A1, “COMPOUNDS AND METHODS FOR MODULATING SPLICING” (REMIX THERAPEUTICS INC., priority 2021, published 2024)

Legend:
HTT mRNA = assay: Splicing RT-qPCR assay, HTT canonical (CJ) and alternative (AJ) junction mRNA; assay type: cell-based; conditions: Homo sapiens, A673 or K562 cells, 24 hours; for IC50: decrease in canonical junction mRNA; for AC50: increase in alternative junction mRNA
Outline: (§1)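 Splice switching was scored by qPCR detection of the new alternative-exon junction (AJ) alongside the canonical junction (CJ). Cell lines A673 or K562 received compound 24 h, top dose 10 uM final.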

MYB mRNA = assay: Splicing RT-qPCR assay, MYB canonical (CJ) and alternative (AJ) junction mRNA; assay type: cell-based; conditions: Homo sapiens, A673 or K562 cells, 24 hours; for IC50: decrease in canonical junction mRNA; for AC50: increase in alternative junction mRNA
Outline: as §1

Target C = assay: HiBiT protein abundance assay, Target C (K562 HiBiT knock-in cells); assay type: cell-based, human; conditions: 24 hours
Outline: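 K562 knock-in cells (10000/well, IMDM+1% FBS) treated 24 h at 37 °C with 10-point 3-fold dilutions, top final 10 μM, DMSO ≤0.25%. HiBiT lytic luminescence read; response normalized to unmodified K562 and DMSO-treated controls. IC50 interpolated at 50% abundance by four-parameter logistic fit.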

Structure (SMILES)	IC50 (HTT mRNA)	AC50 (HTT mRNA)	IC50 (MYB mRNA)	AC50 (MYB mRNA)	IC50 (Target C)
C[C@@H]1CN(c2ccc(C(=O)Nc3cc(F)c4nc(Cl)cn4c3)c3nccnc23)C[C@H](C)N1 [Compound 306]	> 10000 nM	> 10000 nM	100 to 1000 nM	100 to 1000 nM	1000 to 10000 nM
CNc1nc(NC(=O)c2ccc(N3C[C@@H](C)N[C@@H](C)C3)c3nccnc23)cn2cc(C)nc12 [Compound 308]	> 10000 nM	> 10000 nM	1000 to 10000 nM	1000 to 10000 nM	> 10000 nM
Cc1c(O)c(NC(=O)c2ccc(N3C[C@@H](C)N[C@@H](C)C3)c3nccnc23)cc2cn(C)nc12 [Compound 310]	> 10000 nM	> 10000 nM	100 to 1000 nM	100 to 1000 nM	> 10000 nM
Cc1cn2cc(NC(=O)c3ccc(N4C[C@@H](C)N[C@H](C)C4)c4nccnc34)cc(F)c2n1 [Compound 312]	1000 to 10000 nM	1000 to 10000 nM	< 100 nM	< 100 nM	1000 to 10000 nM
Cc1cn2cc(NC(=O)c3ccc(N4C[C@H](C)N[C@@H](C)C4)c4nccnc34)cc(F)c2n1 [Compound 313]	1000 to 10000 nM	1000 to 10000 nM	< 100 nM	< 100 nM	1000 to 10000 nM
Cc1cn2cc(NC(=O)c3ccc(N4CC[C@@H](N)C4)c4nccnc34)cc(F)c2n1 [Compound 315]	> 10000 nM	1000 to 10000 nM	100 to 1000 nM	1000 to 10000 nM	1000 to 10000 nM
Cc1cn2cc(NC(=O)c3ccc(NC4CCNC4)c4nccnc34)cc(F)c2n1 (centres unmarked) [Compound 316]	> 10000 nM	1000 to 10000 nM	100 to 1000 nM	1000 to 10000 nM	> 10000 nM
C[C@@H]1CN(c2ccc(C(=O)Nc3cc(F)c4nn(C)cc4c3)c3nccnc23)C[C@@H](C)N1 [Compound 335]	1000 to 10000 nM	> 10000 nM	100 to 1000 nM	100 to 1000 nM	1000 to 10000 nM
Cc1cn2cc(NC(=O)c3ccc(N4CCC5(CCN5)C4)c4nccnc34)cc(F)c2n1 (centres unmarked) [Compound 339]	1000 to 10000 nM	1000 to 10000 nM	100 to 1000 nM	1000 to 10000 nM	1000 to 10000 nM
Cc1cn2cc(NC(=O)c3ccc(N4C[C@@H](C)N[C@@H](C)C4)c4cccnc34)cc(F)c2n1 [Compound 340]	1000 to 10000 nM	1000 to 10000 nM	100 to 1000 nM	100 to 1000 nM	> 10000 nM
Cc1cn2cc(NC(=O)c3ccc(N4CCNC5(CC5)C4)c4cccnc34)cc(F)c2n1 [Compound 341]	1000 to 10000 nM	1000 to 10000 nM	100 to 1000 nM	100 to 1000 nM	> 10000 nM
COc1nc2c(F)cc(NC(=O)c3ccc(N4C[C@@H](C)N[C@@H](C)C4)c4nccnc34)cc2o1 [Compound 342]	> 10000 nM	> 10000 nM	> 10000 nM	> 10000 nM	> 10000 nM
C[C@@H]1CN(c2ccc(C(=O)Nc3cc(F)c4cnccc4c3)c3nccnc23)C[C@H](C)N1 [Compound 343]	1000 to 10000 nM	1000 to 10000 nM	1000 to 10000 nM	1000 to 10000 nM	1000 to 10000 nM
C[C@@H]1CN(c2ccc(C(=O)Nc3cc(F)c4ncccc4c3)c3nccnc23)C[C@H](C)N1 [Compound 344]	> 10000 nM	> 10000 nM	1000 to 10000 nM	> 10000 nM	> 10000 nM
Cc1cn2cc(NC(=O)c3ccc(N4CCNCC4)c4nncnc34)cc(F)c2n1 [Compound 345]	1000 to 10000 nM	1000 to 10000 nM	100 to 1000 nM	100 to 1000 nM	1000 to 10000 nM
Cc1cn2cc(NC(=O)c3ccc(N4C[C@@H](C)N[C@@H](C)C4)c4ncc(OC5CC5)nc34)cc(F)c2n1 [Compound 351]	1000 to 10000 nM	> 10000 nM	100 to 1000 nM	100 to 1000 nM	> 10000 nM

Structure (SMILES)	IC50 (HTT mRNA)	AC50 (HTT mRNA)	IC50 (MYB mRNA)	AC50 (MYB mRNA)	IC50 (Target C)
COc1nc(NC(=O)c2ccc(N3C[C@@H](C)N[C@@H](C)C3)c3nccnc23)cc2cn(C)nc12 [Compound 352]	1000 to 10000 nM	1000 to 10000 nM	100 to 1000 nM	100 to 1000 nM	1000 to 10000 nM
Cc1ccc2cc(NC(=O)c3ccc(N4C[C@@H](C)N[C@@H](C)C4)c4nccnc34)cc(F)c2n1 [Compound 353]	> 10000 nM	> 10000 nM	> 10000 nM	> 10000 nM	> 10000 nM
Cc1cn2nc(NC(=O)c3ccc(N4C[C@@H](C)N[C@@H](C)C4)c4nccnc34)cc2c(C)n1 [Compound 354]	100 to 1000 nM	100 to 1000 nM	100 to 1000 nM	100 to 1000 nM	100 to 1000 nM
Cc1cn2cc(NC(=O)c3ccc(N4C[C@@H](C)N(O)[C@@H](C)C4)c4nccnc34)cc(F)c2n1 [Compound 355]	> 10000 nM	1000 to 10000 nM	100 to 1000 nM	100 to 1000 nM	1000 to 10000 nM
Cc1cn2cc(NC(=O)c3ccc(N4CCC(N)(CF)CC4)c4nccnc34)cc(F)c2n1 [Compound 356]	1000 to 10000 nM	> 10000 nM	1000 to 10000 nM	1000 to 10000 nM	1000 to 10000 nM
COc1cn2cc(NC(=O)c3ccc(N4C[C@@H](C)N[C@@H](C)C4)c4nccnc34)cc(F)c2n1 [Compound 357]	> 10000 nM	> 10000 nM	> 10000 nM	1000 to 10000 nM	> 10000 nM
Cc1cn2cc(NC(=O)c3ccc(N4C[C@@H](C)N[C@@H](C)C4)c4ncccc34)cc(F)c2n1 [Compound 358]	> 10000 nM	> 10000 nM	> 10000 nM	> 10000 nM	> 10000 nM
Cc1cn2cc(NC(=O)c3ccc(N4C[C@@H](C)N[C@@H](C)C4)c4nccnc34)nc2c(C)n1 [Compound 359]	> 10000 nM	> 10000 nM	100 to 1000 nM	100 to 1000 nM	> 10000 nM
C[C@@H]1CN(c2ccc(C(=O)Nc3cc(F)c4nc(O)cn4c3)c3nccnc23)C[C@H](C)N1 [Compound 360]	> 10000 nM	> 10000 nM	> 10000 nM	> 10000 nM	> 10000 nM
Cc1cn2cc(NC(=O)c3ccc(N4CCN[C@H](CO)C4)c4nccnc34)cc(F)c2n1 [Compound 362]	1000 to 10000 nM	1000 to 10000 nM	100 to 1000 nM	100 to 1000 nM	1000 to 10000 nM
Cc1cn2cc(NC(=O)c3ccc(N4CCNC5(CCC5)C4)c4nccnc34)cc(F)c2n1 [Compound 363]	1000 to 10000 nM	1000 to 10000 nM	100 to 1000 nM	100 to 1000 nM	1000 to 10000 nM
Cc1cn2cc(NC(=O)c3ccc(N4CCN(C)C5(CC5)C4)c4nccnc34)cc(F)c2n1 [Compound 364]	100 to 1000 nM	1000 to 10000 nM	100 to 1000 nM	100 to 1000 nM	1000 to 10000 nM
CCN1CCN(c2ccc(C(=O)Nc3cc(F)c4nc(C)cn4c3)c3nccnc23)CC12CC2 [Compound 365]	100 to 1000 nM	1000 to 10000 nM	100 to 1000 nM	100 to 1000 nM	1000 to 10000 nM
Cc1cn2cc(NC(=O)c3ccc(N4CCN[C@H](CF)C4)c4nccnc34)cc(F)c2n1 [Compound 366]	1000 to 10000 nM	1000 to 10000 nM	100 to 1000 nM	100 to 1000 nM	1000 to 10000 nM
Cc1cn2cc(NC(=O)c3ccc(N4CCN[C@@H](CF)C4)c4nccnc34)cc(F)c2n1 [Compound 367]	1000 to 10000 nM	1000 to 10000 nM	1000 to 10000 nM	1000 to 10000 nM	1000 to 10000 nM
